The text below walks through data of PMC7217877, “N-AS-triggered SPMs are direct regulators of microglia in a model of Alzheimer’s disease” (Nature Communications, 2020).

Several values for one entry are separate records, joined by “and”; a condition that tells them apart may be missing. Identical values can stand only once.

For this test, the system named is immortalized human microglia. Description: ac-S565 COX2 in human microglia (western blot, immunofluorescence, Supplementary Fig 6b,c). The format is cell-based. Details: ac-S565 COX2 (western blot): scale not given here. As to conditions: for ac-S565 COX2 (western blot): sFig 6b. The protocol:
To confirm the generation and roles of N-AS in neurons, cells from E18 C57BL/6 mice were prepared as previously described. Cortices were dissected and then dissociated followed by incubation in papain (Worthington) at 37 °C for 15 min. Neurons were plated on poly-L-lysine-coated coverslips with neuronal culture medium, serum-free Neurobasal medium (Gibco) containing 2% B27 supplements (Gibco), 1 mM Glutamax supplement (Gibco), and 100 U ml^−1 streptomycin/ 100 U ml^−1 penicillin (Gibco) at 37 °C in a humidified atmosphere of 5% CO2. Aβ 1–42 (10 μM, 24 h, Invitrogen, 03112) was exposed to neurons and the cells were analyzed for the generation and roles of N-AS. Primary astrocyte cultures were prepared from C57BL/6 mice as described previously. In brief, after removal of the meninges, postnatal day 7 (P7) mouse brain tissues were minced and incubated in a rocking water bath at 37 °C for 30 min in the presence of 0.25% trypsin-EDTA (Sigma-Aldrich). Enzyme-digested dissociated cells were triturated with astrocyte-specific medium (DMEM/F12 containing 10% FBS and 1% penicillin-streptomycin) and centrifuged at 155×g for 8 min. The pellet was resuspended in astrocyte-specific medium and passed through a 40-μm cell strainer. The filtrate was allowed pre-adherence for 30 min to remove any contamination from fibroblasts before being seeded in dishes and the addition of astrocyte-specific medium. To split the cells, Ara-C was added to the dishes and they were then placed in a heated shaker for 6–7 h. The medium was removed from the dishes, and trypsin-EDTA was added to the dish and incubated at 37 °C for 5–10 min. After centrifugation at 155×g for 8 min, the supernatant was removed, and the astrocytes were maintained in culture by feeding […] with astrocyte-specific medium. Primary microglia cultures were prepared from C57BL/6 mice as described previously. In brief, the cortices of 2-months-old mice were minced in Hibernate A (Gibco)/B27 supplements (Gibco) medium and dissociated using papain (Worthington) solution. After tissue trituration, cells were separated by Optiprep (Sigma-Aldrich) density gradient centrifugation. Microglia were plated with microglia-specific medium (DMEM/F12 containing 10% FBS and 1% penicillin-streptomycin). The immortalized human microglia (Applied Biologics Materials, T0251) were cultured in PriGrow III (Applied Biologics Materials, TM003) (supplemented with 10% FBS and 1% penicillin-streptomycin) at 37 °C in a humidified atmosphere of 5% CO2. […] The human microglia treated with Aβ 1–42 and/or zileuton was incubated with N-AS (2.5 μM, 2 h, Sigma-Aldrich, 01912), and were analyzed for the generation and roles of N-AS.
Thioflavin S (Sigma-Aldrich) staining was carried out according to previously described procedures. We used 6E10 (mouse, 1:100, Signet, SIG39300), anti-20G10 (mouse, 1:1000, provided by D. R. Howlett, GlaxoSmithKline, Harlow, Essex, UK) for Aβ42, anti-G30 (rabbit, 1:1000, provided by D. R. Howlett) for Aβ40, SMA (mouse, 1:400, Sigma-Aldrich, A2547), AT8 (mouse, 1:500, Thermo Fisher Scientific, MN1020), Caspase-3 (mouse, 1:200, Novus Biologicals, NB100-56708), ac-S565 (rabbit, 1:100), COX2 (mouse, 1:250, Thermo Fisher Scientific, 35-8200), Iba1 (rabbit, 1:500, Wako, 019-19941 and goat, Abcam, ab5076), NeuN (mouse, 1:500, Millipore, MAB177), GFAP (rabbit, 1:500, Dako, N1506 and chicken, 1:500, Abcam, ab4674), and Lamp1 (mouse, 1:200, Abcam, ab24170). The sections were analyzed with a laser-scanning confocal microscope (FV3000; Olympus) or with a BX51 microscope (Olympus). MetaMorph software (Molecular Devices) was used to quantification. Three-dimensional reconstruction of microglia was recorded and analyzed using IMARIS software (Bitplane)[11]. […]
In general terms: Immunoblotting shows a protein as a band on a membrane.

Take `CC(=O)SCCNC(=O)CCNC(=O)[C@H](O)C(C)(C)COP(=O)(O)OP(=O)(O)OC[C@H]1O[C@@H](n2cnc3c(N)ncnc32)[C@H](O)[C@@H]1OP(=O)(O)O` [Acetyl-CoA, acetyl-CoA]: the “ac-S565 COX2 (western blot)” value (human microglia, Ab 50mM +) is 1.441 and 1.037 and 1.136 and 1.4813 and 1.401 and 1.309.

Consider `CCCCCCCCCCCCC/C=C/[C@@H](O)[C@H](CO)NC(C)=O` [N-AS, N-((2S,3R,E)-1,3-Dihydroxyoctadec-4-en-2-yl)acetamide], for which the “S565 acetylation of COX2, in words” value (Aβ-affected human microglia + N-AS) is given as “restored”. In addition, the “ac-S565 COX2 (western blot)” value is, setting by setting: (human microglia, Ab 50mM +) 1.839 and 1.211 and 1.367 and 1.737 and 1.941 and 1.552; (human microglia, Ab 50mM -) 1.105 and 1.597 and 1.621 and 1.1016 and 1.489 and 0.9364. Also, the “ac-S565 COX2 (immunofluorescence)” value (human microglia, Ab 50mM +, sFig 6c) is 2.003 and 2.188 and 1.708 and 1.496 and 1.357 and 1.768.
